US20140220036A1, “METHODS FOR TREATING NEURODEGENERATIVE DISEASES AND FOR IDENTIFYING AGENTS USEFUL FOR TREATING NEURODEGENERATIVE DISEASES” (priority 2013, published 2014)

Tested on: h-tau42-dependent transmitter block
Test: Oral administration of agents to squid, then presynaptic h-tau42 injection and recording of synaptic transmission
Assay type: in vivo, squid (Loligo paelli)
Details: systemic administration of agent
Procedure: Squid received an oral dose of each agent effective for such inhibiting phosphorylation of the tau protein. At 24 hours after the first dose a second dose was given, and the electrophysiological experiments were performed 1 hour after the second feeding. It was determine that after 24 hours of the double administration, an effective concentration of each agent effective for such inhibiting phosphorylation of the tau protein was measured in the CNS of the gastrically intubated squid (n=10 squid). Synapses from the treated squid were microinjected at the presynaptic axon with h-tau42 (an approximate 80 nM final concentration h-tau42 (n=19), considering a 100× dilution factor. Pre- and post-synaptic potentials were recorded for 90 min.
The squid (Loligo paelli) stellate ganglia isolation from the mantle and the electrophysiological techniques used have been described previously (Llinás, et al., Proc. Natl. Acad. Sci. U.S.A. 1985; 82: 3035-3039). Two glass micropipette electrodes impaled the largest (most distal) presynaptic terminal digit at the synaptic junction site while the post-synaptic axon was impaled by one microelectrode at the junctional site. One of the pre-electrodes was used for pressure microinjection of h-tau42 and also supported voltage clamp current feedback, while the second monitored membrane potential. The total volume injected fluctuated between 0.1 and 1 pl. (Llinás, et al., Proc. Natl. Acad. Sci. U.S.A. 1985; 82: 3035-3039). The exact location of injection and the diffusion and steady-state distribution of the protein/fluorescent dye mix (0.001% dextran fluorescein) were monitored using a fluorescence microscope attached to a Hamamatsu camera system (Middlesex, N.J.). In all experiments a good correlation was observed between the localization of the fluorescence and the electrophysiological findings.
Following presynaptic and post-synaptic axon impalements and the determination of normal synaptic transmission (Llinás, et al., Proc. Natl. Acad. Sci. U.S.A. 1985; 82: 3035-3039; Llinás, et al. Proc. Natl. Acad. Sci. U.S.A. 1994; 91: 12990-12993; Lin, et al., Proc. Natl. Acad. Sci. U.S.A. 1990; 87: 8257-8261), the effect of human tau on synaptic release was evaluated by presynaptic microinjections administered under direct visualization using a fluorescent dye/protein mix, reaching a final concentration after diffusion of approximately 80 nM. (See, Materials and Methods) Presynaptic and post-synaptic potentials were recorded simultaneously under current-clamp configuration. Presynaptic spikes were activated every 5 minutes (low-frequency protocol). With this paradigm, it was determined that 5-10 minutes after an injection of h-tau42, a reduction of transmitter release could be observed. With further time, a total block of transmission resulted, within 30-40 minutes depending on the length of the release zone in the preterminal axon (see, e.g. FIG. 2). […] By contrast, following administration of each agent effective for such inhibiting phosphorylation of the tau protein to the squid (see bellow) h-tau42-dependent transmitter block was prevented (see, generally, Figures).

Molecule	h-tau42 induced functional and biochemical abnormalities in the presynaptic axon
Xitospongin C	prevented or ameliorated
O=C1CN(/N=C/c2ccc(-c3ccc([N+](=O)[O-])cc3)o2)C(O)=N1 [Dantrolene]	prevented or ameliorated
[Cl-].[Li+] [LiCl]	prevented or ameliorated
Cn1cc(C2=C(c3ccc(Cl)cc3Cl)C(=O)NC2=O)c2ccccc21 [SB216763]	prevented or ameliorated
C[S+]([O-])c1ccc(-c2nc(-c3ccncc3)c(-c3ccc(F)cc3)[nH]2)cc1 (centres unmarked) [SB203580]	prevented or ameliorated
Cn1cnc(N)c2ncnc1-2 [3-methyladenine]	prevented or ameliorated
Cn1cc(C2=C(c3coc4ccccc34)C(=O)NC2=O)c2cc(Br)ccc21 [ING-135]	prevented or ameliorated

Tested on: fast axonal transport (FAT)
Test: not given
Details: Kanaan et al. 2011; squid axons; cited from earlier work

Molecule	effect on inhibition of axonal transport by PAD peptide
Cn1cc(C2=C(c3coc4ccccc34)C(=O)NC2=O)c2cc(Br)ccc21 [ING-135]	blocked
